Where “and” joins values, the source holds several entries; their conditions need not be identical. Identical values can stand only once.
Experiments:
[1] = tested on: monocotylidonous and dicotylidonous weed and crop plants; assay: Herbicidal pre-emergence action (other test plants); assay type: in vivo; conditions: pre-emergence method, 80 g/ha, greenhouse, visual assessment vs untreated controls
Summary of the method: (§1)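 Seeds sown in sandy loam and covered; WP-formulated compounds applied to the soil surface as aqueous suspension at 600 l/ha with 0.2% wetting agent, at varying rates. Greenhouse-grown; emergence damage scored visually after three weeks versus untreated controls (100% = plants dead, 0% = like control).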

[2] = tested on: maize; assay: Crop compatibility small plot trial outdoors with maize, post-emergence, with and without safener; assay type: in vivo; conditions: 60 g ai/ha (with safener 60 + 60)
Experimental: Method crop compatibility small plot trial outdoors: • Customary sowing using a single seed seeder • Plot size: 11.25 m^2/two repetitions
Treatment was carried out using a plot sprayer. The safener was applied together with the test substance as a tank mix using 300 l of water/ha (amounts of herbicide and safener are stated in g of ai/ha). Post-emergence application was carried out at the five-leaf stage of maize. Crop compatibility was assessed visually 14 and 27 days after the treatment (in percent compared to an untreated control), 100% damage=the plants have died, 0% damage=like control plants). • Outside trial with maize (Magixx Duo is cycloxidim-tolerant) • Post-Emergence Method

[3] = tested on: Echinocloa crus-galli; assay: Herbicidal pre-emergence action; assay type: in vivo; conditions: pre-emergence method, 80 g/ha, greenhouse, visual assessment vs untreated controls
Summary of the method: as §1

[4] = tested on: Setaria viridis; assay: Herbicidal pre-emergence action; assay type: in vivo; conditions: pre-emergence method, 80 g/ha, greenhouse, visual assessment vs untreated controls
Summary of the method: as §1

[5] = tested on: Alopecurus myosuroides; assay: Herbicidal pre-emergence action; assay type: in vivo; conditions: pre-emergence method, 80 g/ha, greenhouse, visual assessment vs untreated controls
Summary of the method: as §1

[6] = tested on: Lolium multiflorum; assay: Herbicidal pre-emergence action; assay type: in vivo; conditions: pre-emergence method, 80 g/ha, greenhouse, visual assessment vs untreated controls
Summary of the method: as §1

[7] = tested on: cereals; assay: Container trials with cereals in the greenhouse, use of safeners (Mefenpyr 1 day prior to herbicide application); assay type: in vivo
Experimental: Seeds of monocotylidonous and dicotylidonous weed and crop plants are placed in sandy loam in wood fibre pots, covered with soil and cultivated in a greenhouse under good growth conditions. Two to three weeks after sowing, the test plants are treated at the one-leaf stage. The test compounds, formulated as wettable powders (WP), are then with a water application rate of 600 l/ha (converted), with 0.2% of wetting agent added, sprayed onto the green parts of the plants in different amounts. After the test plants have been kept in the greenhouse under optimum growth conditions for about three weeks, the effect of the preparations is assessed visually in comparison to untreated controls (herbicidal effect in percent: 100% effect=the plants have died, 0% effect=like control plants).
If it is to be additionally tested as to whether safeners can improve the plant compatibility of test substances in the case of crop plants, the following options are used for applying the safeners: • Seeds of the crop plants are, before sowing, dressed with safener substance (the amount of safener stated in percent, based on the weight of the seed) • Before the application of the test substances, the crop plants are sprayed with the safener at a certain application rate per hectare (usually one day before the application of the test substances) • The safener is applied together with the test substance as a tank mix (the amount of safener stated in g/ha or as a ratio, based on the herbicide).
Container Trials with Cereals in the Greenhouse

[8] = tested on: Echinocloa crus-galli; assay: Herbicidal post-emergence action; assay type: in vivo; conditions: post-emergence method; for herbicidal effect against ECHCG (Echinochloa crus-galli): 80 g/ha; for pest or weed control at 80 g/ha: Echinochloa crus-galli, 504 h, read-out: herbicidal effect against ECHCG (Echinochloa crus-galli)
Summary of the method: (§2)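 Post-emergence spray test: wettable-powder formulations are applied at different amounts to one-leaf-stage plants in 600 l/ha water containing 0.2% wetting agent. After roughly three weeks in the greenhouse, percent effect is rated visually relative to untreated controls.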

[9] = tested on: Setaria viridis; assay: Herbicidal post-emergence action; assay type: in vivo; conditions: post-emergence method; for herbicidal effect against SETVI (Setaria viridis): 80 g/ha; for pest or weed control at 80 g/ha: Setaria viridis, 504 h, read-out: herbicidal effect against SETVI (Setaria viridis)
Summary of the method: as §2

[10] = tested on: Alopecurus myosuroides; assay: Herbicidal post-emergence action; assay type: in vivo; conditions: post-emergence method; for herbicidal effect against ALOMY (Alopecurus myosuroides): 80 g/ha; for pest or weed control at 80 g/ha: Alopecurus myosuroides, 504 h, read-out: herbicidal effect against ALOMY (Alopecurus myosuroides)
Summary of the method: as §2

[11] = tested on: Lolium multiflorum; assay: Herbicidal post-emergence action; assay type: in vivo; conditions: post-emergence method; for herbicidal effect against LOLMU (Lolium multiflorum): 80 g/ha; for pest or weed control at 80 g/ha: Lolium multiflorum, 504 h, read-out: herbicidal effect against LOLMU (Lolium multiflorum)
Summary of the method: as §2

[12] = tested on: monocotylidonous and dicotylidonous weed and crop plants; assay: Herbicidal post-emergence action (other test plants); assay type: in vivo; conditions: post-emergence method; for herbicidal effect against AVEFA (Avena fatua): 80 g/ha; for pest or weed control at 80 g/ha: 504 h, Avena fatua, read-out: herbicidal effect against AVEFA (Avena fatua)
Summary of the method: as §2

[13] = Penetration of active compounds through enzymatically isolated cuticles of apple tree leaves; assay type: in vitro ADME, apple trees of the cultivar Golden Delicious; conditions: 20° C., 60% rh
Experimental: Increase of penetration into the plant by ammonium or phosphonium salts and synergistic increase of penetration into the plant by ammonium/phosphonium salts in combination with penetrants.
In this test, the penetration of active compounds through enzymatically isolated cuticles of apple tree leaves was measured.
Use was made of leaves which, fully developed, were cut from apple trees of the cultivar Golden Delicious. The cuticles were isolated by • initially filling leaf discs punched out and stained with dye on the underside by vacuum infiltration with a pectinase solution (0.2 to 2% strength) buffered to a pH between 3 and 4, • […] allowing the leaf discs treated in this manner to stand until the original leaf structure has dissolved and the non-cellular cuticles have detached.
Only the cuticles, free from hairs and stoma, of the upper sides of the leaves were then used. They were washed repeatedly alternating with water and a buffer solution of pH 7. The clean cuticles obtained were then mounted on Teflon plates and smoothed and dried with a gentle stream of air.
In the next step, the cuticle membranes obtained in this manner were placed into stainless steel diffusion cells (=transport chambers) for membrane transport studies. To this end, the cuticles were placed with a pincet into the centre of the edges, coated with silicone fat, of the diffusion cells and closed with a ring, which had also been treated with fat. The arrangement was chosen such that the morphological outside of the cuticles was facing outwards, i.e. exposed to air, whereas the original inside was facing the interior of the diffusion cells.
The diffusion cells were filled with a 30% strength ethylene glycol/water solution. To determine the penetration, in each case 10 μl of the spray liquor of the composition below were applied to the outside of the cuticles. The spray liquor was prepared using local tap water of medium hardness.
After the spray liquors had been applied, the water was allowed to evaporate and the chambers were inverted and placed into thermostatic […] in which temperature and atmospheric humidity over the cuticles could be adjusted using a gentle stream of air onto the cuticles with the spray coating (20° C., 60% rh). At regular intervals, an autosampler took aliquots and the active compound content was determined by HPLC.
The stated numbers are average values of eight to ten measurements.

[14] = 10 days after application, 25 g of a.i./ha
[15] = 10 days after application, 50 g of a.i./ha
[16] = 10 days after application, 100 g of a.i./ha
[17] = 28 days after application, 25 g of a.i./ha
[18] = 28 days after application, 50 g of a.i./ha
[19] = 28 days after application, 100 g of a.i./ha
[20] = 28 days after application, 12.5 g of a.i./ha

| SMILES | herbicidal effect AVEFA [1] | herbicidal effect ECHCG [3] | herbicidal effect SETVI [4] | herbicidal effect ALOMY [5] | herbicidal effect LOLMU [6] | herbicidal effect against ECHCG (Echinochloa crus-galli) [8] | herbicidal effect against SETVI (Setaria viridis) [9] | herbicidal effect against ALOMY (Alopecurus myosuroides) [10] | herbicidal effect against LOLMU (Lolium multiflorum) [11] | herbicidal effect against AVEFA (Avena fatua) [12] | Summer wheat observed (%) [7, 17] | Summer wheat observed (%) [7, 18] | Summer wheat observed (%) [7, 19] | Summer barley observed (%) [7, 18] | Summer barley observed (%) [7, 19] | Summer wheat observed (%) [7, 20] | pest or weed control at 80 g/ha [8] | pest or weed control at 80 g/ha [10] | pest or weed control at 80 g/ha [11] | pest or weed control at 80 g/ha [12] | other results |
| --- | --- | --- | --- | --- | --- | --- | --- | --- | --- | --- | --- | --- | --- | --- | --- | --- | --- | --- | --- | --- | --- |
| CCc1cc(C)cc(CC)c1C1=C(O)[C@H]2CC3(C[C@H]2C1=O)OCCO3 (relative stereo) [I-a-8] | 60% | 90% | 90% | 100% | 100% | 100% | 100% | 100% | 100% | 100% |  |  |  |  |  |  |  |  |  |  | % damage ([2]; maize cultivar Magixx Duo (cycloxidim-tolerant), 14 days after application): 0%; % damage ([2]; maize cultivar Magixx Duo (cycloxidim-tolerant), 27 days after application): 0%; % damage ([2]; maize cultivar Oldham, 14 days after application): 94%; % damage ([2]; maize cultivar Oldham, 27 days after application): 93%; Summer barley observed (%) [7, 14]: 10%; Summer barley observed (%) [7, 15]: 20%; Summer barley observed (%) [7, 16]: 20%; Summer wheat observed (%) ([7]; 10 days after application, 12.5 g of a.i./ha): 20%; Summer wheat observed (%) [7, 14]: 40% and 20%; Summer wheat observed (%) [7, 15]: 50% and 30%; Summer wheat observed (%) [7, 16]: 60% and 30% |
| CCOC(=O)OC1=C(c2c(CC)cc(C)cc2CC)C(=O)[C@@H]2CC3(C[C@H]12)OCCCCO3 (relative stereo) [I-c-9] | 70% | 100% | 70% | 100% | 100% | 100% | 90% | 90% | 100% | 80% | 30% | 40% | 50% |  |  |  |  |  |  |  |  |
| CCOC(=O)OC1=C(c2c(CC)cc(C)cc2CC)C(=O)[C@@H]2CC3(C[C@H]12)OCCCO3 (relative stereo) [I-c-14] | 70% | 90% | 70% | 90% | 100% | 100% | 100% | 90% | 100% | 70% | 50% | 60% | 70% | 10% | 20% | 40% |  |  |  |  |  |
| CCc1cc(C)cc(CC)c1C1=C(O)[C@H]2C[C@@]3(COC(C)(C)O3)C[C@H]2C1=O [I-a-1] | 80% | 50% | 60% | 90% | 100% |  |  |  |  |  |  |  |  |  |  |  | 100% | 100% | 100% | 90% | Penetration after 24 h ([13]; a.i. (0.2 g/l) + AS = ammonium sulphate (0.7 g/l)): 4%; Penetration after 24 h ([13]; a.i. (0.2 g/l) + Edenor ME SU 500 EW (2 g/l) + AS (0.7 g/l)): 13%; Penetration after 24 h ([13]; a.i. (0.2 g/l) + Edenor Me SU 500 EW (2 g/l)): 11.5%; Penetration after 24 h ([13]; a.i. (0.2 g/l) alone, average of eight to ten measurements): 2.5% |
| CCc1cc(C)cc(CC)c1C1=C(O)[C@H]2C[C@]3(COC(C)(C)O3)C[C@H]2C1=O [I-a-2] | 50% | 90% | 50% | 90% | 100% |  |  |  |  |  | 50% | 60% |  |  |  | 40% | 100% | 100% | 100% | 70% | pest or weed control at 80 g/ha [9]: 90% |
| C=C1COC2(C[C@@H]3C(O)=C(c4c(CC)cc(C)cc4CC)C(=O)[C@@H]3C2)OC1 [I-a-3] | 80% | 100% | 100% | 100% | 100% |  |  |  |  |  | 60% | 70% | 85% | 60% | 70% | 10% | 100% | 90% | 100% | 90% | Summer barley observed (%) [7, 17]: 20%; pest or weed control at 80 g/ha [9]: 100% |
| C=C1COC2(CC3C(=O)C(c4c(CC)cc(C)cc4CC)=C(OC(=O)C(C)C)C3C2)OC1 (stereo not shown) [I-b-13] | 80% | 100% | 100% | 100% | 100% | 100% | 100% | 100% | 100% | 100% | 40% | 80% | 85% | 20% | 50% | 20% |  |  |  |  |  |
